In patent publication EP0745595A1, “3-(3-Aryloxyphenyl)-1-(substituted methyl)-s-triazine-2,4,6-oxo or thiotrione herbicidal agents” (American Cyanamid Company, priority 1995, dated 1996):

Key:
Assay type in all cases: in vivo
IPOMOEA SPP. = experiment: Preemergence herbicidal evaluation, IPOSS (Morningglory spp.); conditions: four to five weeks after treatment
Method in brief: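 Seeds of morningglory (Ipomoea spp.) were mixed with potting soil and sown on roughly one inch of soil in pint cups for a preemergence herbicide test. The cups were put on greenhouse benches, watered, and maintained by standard greenhouse practice. Four to five weeks after treatment each cup was scored visually on a 0-9 scale against a control.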

[1] = system: ORYZA SATIVA, L. TEBONNET; experiment: Preemergence herbicidal evaluation, ORYSAT (Rice, Tebonnet); conditions: four to five weeks after treatment
Method in brief: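 Seeds of rice (Oryza sativa, Tebonnet) were mixed with potting soil and sown on about one inch of soil in pint cups, then treated preemergence. Cups sat on greenhouse benches, watered and tended by standard greenhouse practice. Four to five weeks after treatment, plants were visually scored on a 0-9 scale relative to a control.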

[2] = system: ORYZA SATIVA, L. TEBONNET; experiment: Rice tolerance to post-transplant applications under flooded paddy conditions, ORYSAT (Rice, Tebonnet); conditions: post-transplant rice, rated three to four weeks after treatment;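 further: applied to flooded soil surface three days after transplanting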
Method in brief: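 Two ten-day-old Tebonnet rice seedlings were transplanted into silt loam and kept flooded 1.5 to 3 cm deep. Three days after transplanting, the flood surface received the compound in aqueous/acetone 50/50 v/v at about 0.5, 0.25, 0.125 or 0.063 kg/ha. Injury was rated visually on a 0-9 scale versus control after 3-4 weeks.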

[3] = system: ABUTILON THEOPHRASTI, MEDIC.; experiment: Preemergence herbicidal evaluation, ABUTH (Velvetleaf); conditions: four to five weeks after treatment
Method in brief: (§1)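 Preemergence, greenhouse: seed + potting soil sown on ~1 inch soil in cups; aqueous acetone spray, ~0.125–0.50 kg/ha equivalent; rated 0-9 vs control at 4–5 wk.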

CHENOPODIUM ALBUM, L. [4] = experiment: Postemergence herbicidal evaluation, CHEAL (Lambsquarters, Common); conditions: rated four to five weeks after treatment, averaged
Method in brief: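 Seedlings of common lambsquarters (Chenopodium album) were raised in jiffy flats for roughly two weeks, then sprayed postemergence through a nozzle at 40 psi with test compound dispersed in 50/50 acetone/water containing 0.5% TWEEN®20 surfactant. Plants were kept on greenhouse benches under standard care and rated visually on a 0-9 scale versus controls.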

[5] = system: AMBROSIA ARTEMISIIFOLIA, L.; experiment: Preemergence herbicidal evaluation, AMBEL (Ragweed, Common); conditions: four to five weeks after treatment
Method in brief: as §1

[6] = system: ECHINOCHLOA CRUS-GALLI, (L) BEAU; experiment: Preemergence herbicidal evaluation, ECHCG (Barnyardgrass); conditions: four to five weeks after treatment
Method in brief: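 Barnyardgrass seeds were mixed with potting soil and planted on about one inch of soil in pint cups for preemergence testing. Treated cups were kept on greenhouse benches, watered and maintained by standard greenhouse practice. After four to five weeks, each cup was visually rated on a 0-9 scale against an untreated control.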

[7] = system: TRITICUM AESTIVUM, CV. APOLLO; experiment: Preemergence herbicidal evaluation, TRZAWO (Wheat, Winter, CV. APOLLO); conditions: four to five weeks after treatment
Method in brief: as §1

SAGITTARIA PYGMAEA, L. = experiment: Preemergence weed control under flooded paddy conditions, SAGPY (Arrowhead (Pygmaea)); conditions: preemergence weeds, rated three to four weeks after treatment
Method in brief: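 Seeds or propagules sown in top 0.5 cm of silt loam in undrained containers, flooded 1.5 to 3 cm throughout. Compounds in aqueous/acetone 50/50 v/v pipetted into flood water at about 0.5, 0.25, 0.125 and 0.063 kg/ha. Visual 0-9 rating versus control after three to four weeks in greenhouse.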

[8] = system: GLYCINE MAX(L) MERR. CV. WILLIAMS; experiment: Preemergence herbicidal evaluation, GLXMAW (Soybean, Williams); conditions: four to five weeks after treatment
Method in brief: as §1

[9] = system: SETARIA VIRIDIS, (L) BEAU; experiment: Preemergence herbicidal evaluation, SETVI (Foxtail, Green); conditions: four to five weeks after treatment
From the text: Results of herbicide evaluation are expressed on a rating scale (0-9). The scale is based upon a visual observation of plant stand, vigor, malformation, size, chlorosis and overall plant appearance as compared with a control.
The preemergence herbicidal activity of the test compounds of the present invention is exemplified by the following tests in which the seeds of a variety of monocotyledonous and dicotyledonous plants are separately mixed with potting soil and planted on top of approximately one inch of soil in separate pint cups. […] The treated cups are then placed on greenhouse benches, watered and cared for in accordance with conventional greenhouse procedures. From four to five weeks after treatment, the tests are terminated and each cup is examined and rated according to the rating system provided in Example 40.
The compounds evaluated are reported by compound number given in Example 40.

ZEA MAYS L. = experiment: Preemergence herbicidal evaluation, ZEAMX (Corn, Field); conditions: four to five weeks after treatment
Method in brief: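 Corn (Zea mays) seeds were mixed with potting soil and planted on about one inch of soil in pint cups, then treated preemergence. Cups were kept on greenhouse benches, watered and maintained conventionally, and after four to five weeks were visually rated on a 0-9 scale versus an untreated control.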

CHENOPODIUM ALBUM, L. [10] = experiment: Preemergence herbicidal evaluation, CHEAL (Lambsquarters, Common); conditions: four to five weeks after treatment
Method in brief: as §1

CCOC(=O)Cn1c(=O)n(CC(=O)OC)c(=O)n(-c2cc(Oc3c(F)cc(C(F)(F)F)cc3Cl)ccc2C#N)c1=O [Compound 12, 1-Ethyl methyl 5-{5-[(2-chloro-α,α,α,6-tetrafluoro-p-tolyl)oxy]-2-cyanophenyl}-dihydro-2,4,6-trioxo-s-triazine-1,3(2H,4H)-diacetate]
IPOSS rating (IPOMOEA SPP.; Rate 0.125 kg/ha): 0.0
IPOSS rating (IPOMOEA SPP.; Rate 0.250 kg/ha): 0.0
IPOSS rating (IPOMOEA SPP.; Rate 0.500 kg/ha): 0.0
ORYSAT rating ([1]; Rate 0.125 kg/ha): 0.0
ORYSAT rating ([1]; Rate 0.250 kg/ha): 0.0
ORYSAT rating ([1]; Rate 0.500 kg/ha): 0.0
ORYSAT herbicidal rating (rice tolerance) ([2]; Rate 0.063 kg/ha): 0.0
ORYSAT herbicidal rating (rice tolerance) ([2]; Rate 0.125 kg/ha): 0.0
ORYSAT herbicidal rating (rice tolerance) ([2]; Rate 0.250 kg/ha): 0.0
ORYSAT herbicidal rating (rice tolerance) ([2]; Rate 0.500 kg/ha): 1.0
ABUTH rating ([3]; Rate 0.125 kg/ha): 0.0
ABUTH rating ([3]; Rate 0.250 kg/ha): 0.0
ABUTH rating ([3]; Rate 0.500 kg/ha): 0.0
CHEAL, herbicide rating (0-9) (CHENOPODIUM ALBUM, L. [4]; Rate 0.125 kg/ha): 9.0
CHEAL, herbicide rating (0-9) (CHENOPODIUM ALBUM, L. [4]; Rate 0.250 kg/ha): 9.0
CHEAL, herbicide rating (0-9) (CHENOPODIUM ALBUM, L. [4]; Rate 0.500 kg/ha): 9.0
AMBEL rating ([5]; Rate 0.125 kg/ha): 0.0
AMBEL rating ([5]; Rate 0.250 kg/ha): 0.0
AMBEL rating ([5]; Rate 0.500 kg/ha): 0.0
ECHCG rating ([6]; Rate 0.125 kg/ha): 0.0
ECHCG rating ([6]; Rate 0.250 kg/ha): 0.0
ECHCG rating ([6]; Rate 0.500 kg/ha): 0.0
TRZAWO rating ([7]; Rate 0.125 kg/ha): 0.0
TRZAWO rating ([7]; Rate 0.250 kg/ha): 0.0
TRZAWO rating ([7]; Rate 0.500 kg/ha): 0.0
SAGPY herbicidal rating (SAGITTARIA PYGMAEA, L.; Rate 0.063 kg/ha): 0.0
SAGPY herbicidal rating (SAGITTARIA PYGMAEA, L.; Rate 0.125 kg/ha): 0.0
SAGPY herbicidal rating (SAGITTARIA PYGMAEA, L.; Rate 0.250 kg/ha): 0.0
SAGPY herbicidal rating (SAGITTARIA PYGMAEA, L.; Rate 0.500 kg/ha): 0.0
GLXMAW rating ([8]; Rate 0.125 kg/ha): 0.0
GLXMAW rating ([8]; Rate 0.250 kg/ha): 0.0
GLXMAW rating ([8]; Rate 0.500 kg/ha): 0.0
SETVI rating ([9]; Rate 0.125 kg/ha): 0.0
SETVI rating ([9]; Rate 0.250 kg/ha): 0.0
SETVI rating ([9]; Rate 0.500 kg/ha): 0.0
ZEAMX rating (ZEA MAYS L.; Rate 0.125 kg/ha): 0.0
ZEAMX rating (ZEA MAYS L.; Rate 0.250 kg/ha): 0.0
ZEAMX rating (ZEA MAYS L.; Rate 0.500 kg/ha): 0.0
CHEAL rating (CHENOPODIUM ALBUM, L. [10]; Rate 0.125 kg/ha): 0.0
CHEAL rating (CHENOPODIUM ALBUM, L. [10]; Rate 0.250 kg/ha): 0.0
CHEAL rating (CHENOPODIUM ALBUM, L. [10]; Rate 0.500 kg/ha): 0.0
